A short description of data set [1]: Thiamine levels in plasma and erythrocytes after oral administration of the medicament with Benfotiamin. The format is in vivo. As to conditions: comparator not printed in b22 (Thiaminhydrochlorid).
A short description of data set [2]: Availability and passage of the blood-brain barrier, Benfotiamin compared with Thiaminhydrochlorid. Type of data set: in vivo.
Setting [3] is: in contrast to Thiaminhydrochlorid.

Molecules are shown by their SMILES.

In the case of `CC(=C(CCOP(=O)(O)O)SC(=O)c1ccccc1)N(C=O)Cc1cnc(C)nc1N` [Benfotiamin], in data set [1], the “höhere Anstiege von Thiamin und Thiamindiphosphat-coenzymen in den Erythrozyten” value is “ca. 130 -fach” and the “höhere Plasmaspiegel an Thiamin” value is recorded as 10 -fach. In data set [2] (compared with Thiaminhydrochlorid), the Verfügbarkeit entry was “besser verfügbar als Thiaminhydrochlorid”. In addition, in data set [2] (setting [3]), the Blut-Hirn-Schranke entry is recorded as “passiert” and the Liquor cerebrospinalis entry is recorded as “anreichert”.

Values taken from patent EP0558960A1, “Medicament for the prophylaxis and treatment of the neurologic and psychiatric disorders caused by alcohol abuse, which contains thiamine, folic acid and cobalamine” (priority 1992, dated 1993).
